What all share (assay type): in vivo
For experiment [1], the system named is ABUTH: Abutilon theophrasti. The experiment is described as follows: Post-emergence herbicidal efficacy at 1280 g/ha, ABUTH. Particulars: rated visually after about 3 weeks vs untreated controls, 100% = plants have died, 0% = like control plants. Put shortly: (§1)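 Visual damage rating was made roughly 3 weeks after treatment, relative to untreated plants, on a scale where 0% means no effect and 100% means plants died. Foliar application was at the one-leaf stage as an aqueous WP/EC spray with 0.5% additive at 600 L/ha water, on greenhouse-grown pot plants.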

Experiment [2] relates to AMARE: Amaranthus retroflexus. The experiment is described as follows: Post-emergence herbicidal efficacy at 1280 g/ha, AMARE. The conditions noted are these: rated visually after about 3 weeks vs untreated controls, 100% = plants have died, 0% = like control plants. Put shortly: as §1
Experiment [3] deals with DIGSA: Digitaria sanguinalis. The experiment can be described thus: Post-emergence herbicidal efficacy at 1280 g/ha, DIGSA. Particulars: rated visually after about 3 weeks vs untreated controls, 100% = plants have died, 0% = like control plants. How it is done: (§2) Seeds of mono- and dicotyledonous weed plants were placed in plastic pots in sandy loam soil (doubly sown with in each case one species of mono- or dicotyledonous weed plants per pot), covered with soil and cultivated in a greenhouse under controlled growth conditions. 2 to 3 weeks after sowing, the test plants were treated at the one-leaf stage. The compounds of the invention, formulated in the form of wettable powders (WP) or as emulsion concentrates (EC), were applied to the green parts of the plants as aqueous suspension or emulsion with addition of 0.5% additive at a water application rate equivalent to 600 litres per hectare. After the test plants had been kept in the greenhouse under optimum growth conditions for about 3 weeks, the activity of the preparations was rated visually in comparison to untreated controls. For example, 100% activity=the plants have died, 0% activity=like control plants. Tables A1 to A12 below show the effects of selected compounds of the general formula (I) according to Table 1 on various harmful plants and at an application rate corresponding to 1280 g/ha, which were obtained by the trial procedure specified above.

The test system of experiment [4] is ECHCG: Echinochloa crus-galli. The experiment can be described thus: Post-emergence herbicidal efficacy at 1280 g/ha, ECHCG. Particulars: rated visually after about 3 weeks vs untreated controls, 100% = plants have died, 0% = like control plants. On the procedure:
as §2

Experiment [5] concerns KCHSC: Kochia scoparia. The experiment can be described thus: Post-emergence herbicidal efficacy at 1280 g/ha, KCHSC. The conditions noted are these: visual rating about 3 weeks after treatment vs untreated controls. The method in brief:
as §1

In experiment [6] the test system is POAAN: Poa annua. The experiment can be described thus: Post-emergence herbicidal efficacy at 1280 g/ha, POAAN. Particulars: visual rating about 3 weeks after treatment vs untreated controls. The method in brief: as §1
For experiment [7], the system named is SETVI: Setaria viridis. The experiment can be described thus: Post-emergence herbicidal efficacy at 1280 g/ha, SETVI. Particulars: visual rating about 3 weeks after treatment vs untreated controls. The method in brief: as §1
Experiment [8] concerns STEME: Stellaria media. The experiment is described as follows: Post-emergence herbicidal efficacy at 1280 g/ha, STEME. Particulars: visual rating about 3 weeks after treatment vs untreated controls. Put shortly:
as §1

The subject of experiment [9] is VERPE: Veronica persica. The experiment can be described thus: Post-emergence herbicidal efficacy at 1280 g/ha, VERPE. Particulars: visual rating about 3 weeks after treatment vs untreated controls. Put shortly: as §1
Experiment [10] deals with ABUTH: Abutilon theophrasti. The experiment can be described thus: Pre-emergence herbicide efficacy at 1280 g/ha, ABUTH. The conditions noted are these: visual scoring after about 3 weeks vs untreated controls. The method in brief:
(§3)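 Compound applied pre-emergence in WP or EC form to the covering soil over sown seeds, in aqueous spray with 0.5% additive (600 L/ha water). After greenhouse culture for about 3 weeks, damage is rated visually from 0% (as control) to 100% (plants dead).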

Experiment [11] relates to AMARE: Amaranthus retroflexus. The experiment can be described thus: Pre-emergence herbicide efficacy at 1280 g/ha, AMARE. Particulars: visual scoring after about 3 weeks vs untreated controls. Put shortly: as §3
In experiment [12] the test system is DIGSA: Digitaria sanguinalis. The experiment can be described thus: Pre-emergence herbicide efficacy at 1280 g/ha, DIGSA. Particulars: visual scoring after about 3 weeks vs untreated controls. Put shortly:
as §3

The test system of experiment [13] is ECHCG: Echinochloa crus-galli. The experiment can be described thus: Pre-emergence herbicide efficacy at 1280 g/ha, ECHCG. Particulars: visual scoring after about 3 weeks vs untreated controls. Put shortly:
as §3

Experiment [14] concerns KCHSC: Kochia scoparia. The experiment is described as follows: Pre-emergence herbicide efficacy at 1280 g/ha, KCHSC. The conditions noted are these: visual scoring after about 3 weeks vs untreated controls. The method in brief: as §3
Experiment [15] concerns POAAN: Poa annua. The experiment can be described thus: Pre-emergence herbicide efficacy at 1280 g/ha, POAAN. The conditions noted are these: visual scoring after about 3 weeks vs untreated controls. The method in brief: as §3
The subject of experiment [16] is SETVI: Setaria viridis. The experiment is described as follows: Pre-emergence herbicide efficacy at 1280 g/ha, SETVI. Particulars: visual scoring vs untreated controls. The method in brief:
as §3

Experiment [17] concerns STEME: Stellaria media. The experiment can be described thus: Pre-emergence herbicide efficacy at 1280 g/ha, STEME. The conditions noted are these: visual scoring vs untreated controls. The method in brief:
as §3

The subject of experiment [18] is VERPE: Veronica persica. The experiment is described as follows: Pre-emergence herbicide efficacy at 1280 g/ha, VERPE. The conditions noted are these: visual scoring vs untreated controls. The source says:
(§4) Seeds of mono- and dicotyledonous weed plants were placed in plastic pots in sandy loam soil (doubly sown with one species each of mono- or dicotyledonous weed plants per pot) and covered with soil. The compounds of the invention, formulated in the form of wettable powders (WP) or as emulsion concentrates (EC), were then applied to the surface of the covering soil as aqueous suspension or emulsion with addition of 0.5% additive at a water application rate of 600 litres per hectare (converted). After the treatment, the pots were placed in a greenhouse and kept under good growth conditions for the test plants. After about 3 weeks, the efficacy of the preparations was scored visually in comparison with untreated controls as percentages. For example, 100% activity=the plants have died, 0% activity=like control plants. Tables C1 to C12 below show the effects of selected compounds of the general formula (I) according to Table 1 on various harmful plants and at an application rate corresponding to 1280 g/ha, which were obtained by the trial procedure specified above.

Experiment [19] has as its system MATIN: Matricaria inodora. The experiment can be described thus: Pre-emergence herbicide efficacy at 1280 g/ha, MATIN. Particulars: visual scoring after about 3 weeks vs untreated controls.
Source text: as §4

Take `Fc1ccc(Cc2ccccc2Cc2ncc(Cl)cn2)cc1` [Example 1-23]: the “Post-emergence efficacy at 1280 g/ha against ABUTH in %” value in experiment [1] is reported as 100%. Also, in experiment [2], the “Post-emergence efficacy at 1280 g/ha against AMARE in %” value amounted to 100%. In addition, in experiment [3], the “Post-emergence efficacy at 1280 g/ha against DIGSA in %” value was 100%. Besides, the “Post-emergence efficacy at 1280 g/ha against ECHCG in %” value in [4] is recorded as 100%. Also, in the experiment with KCHSC: Kochia scoparia [5], the “Post-emergence efficacy against KCHSC” value is 90%. Also, the “Post-emergence efficacy against POAAN” value with POAAN: Poa annua [6] amounted to 100%. Also, in the experiment with SETVI: Setaria viridis [7], the “Post-emergence efficacy against SETVI” value is reported as 90%. Moreover, the “Post-emergence efficacy against STEME” value with STEME: Stellaria media [8] was 90%. For the same molecule, in the experiment on VERPE: Veronica persica [9], the “Post-emergence efficacy against VERPE” value was determined as 100%. Moreover, the “Pre-emergence efficacy against ABUTH” value in experiment [10] is listed as 100%. In experiment [11], the “Pre-emergence efficacy against AMARE” value was found to be 100%. In addition, the “Pre-emergence efficacy against DIGSA” value in experiment [12] is on record as 100%. Besides, in [13], the “Pre-emergence efficacy against ECHCG” value was 100%. The “Pre-emergence efficacy against KCHSC” value in the experiment on KCHSC: Kochia scoparia [14] was found to be 90%. The “Pre-emergence efficacy against POAAN” value with POAAN: Poa annua [15] was determined as 90%. The “Pre-emergence efficacy against SETVI in %” value with SETVI: Setaria viridis [16] came to 100%. For the same molecule, the “Pre-emergence efficacy against STEME in %” value in the experiment with STEME: Stellaria media [17] is 100%. Moreover, in the experiment with VERPE: Veronica persica [18], the “Pre-emergence efficacy against VERPE in %” value is 100%.

On to `Fc1cnc(Oc2ccccc2Cc2ccc(Cl)cn2)nc1` [Example 1-100], for which the “Post-emergence efficacy at 1280 g/ha against ABUTH in %” value in experiment [1] worked out at 90%. In experiment [2], the “Post-emergence efficacy at 1280 g/ha against AMARE in %” value amounted to 100%. Also, the “Post-emergence efficacy against KCHSC” value in the experiment on KCHSC: Kochia scoparia [5] turned out to be 100%. Besides, the “Post-emergence efficacy against POAAN” value in the experiment with POAAN: Poa annua [6] came out at 100%. Also, in the experiment with SETVI: Setaria viridis [7], the “Post-emergence efficacy against SETVI” value was found to be 90%. Moreover, the “Post-emergence efficacy against STEME” value in the experiment with STEME: Stellaria media [8] is 90%. Also, in the experiment on VERPE: Veronica persica [9], the “Post-emergence efficacy against VERPE” value is on record as 100%. For the same molecule, in [10], the “Pre-emergence efficacy against ABUTH” value was found to be 100%. The “Pre-emergence efficacy against AMARE” value in experiment [11] was found to be 100%. Further, in [12], the “Pre-emergence efficacy against DIGSA” value was 100%. The “Pre-emergence efficacy against ECHCG” value in [13] stood at 100%. In the experiment with KCHSC: Kochia scoparia [14], the “Pre-emergence efficacy against KCHSC” value was found to be 100%. Besides, the “Pre-emergence efficacy against MATIN” value in [19] is given as 100%. Also, the “Pre-emergence efficacy against POAAN” value in the experiment on POAAN: Poa annua [15] is reported as 100%. Besides, in the experiment on SETVI: Setaria viridis [16], the “Pre-emergence efficacy against SETVI in %” value was found to be 100%. The “Pre-emergence efficacy against STEME in %” value in the experiment with STEME: Stellaria media [17] is 100%. Also, the “Pre-emergence efficacy against VERPE in %” value with VERPE: Veronica persica [18] was determined as 100%.

With `Clc1cnc(Oc2ccccc2Cc2ncccn2)nc1` [Example 1-76], in experiment [2], the “Post-emergence efficacy at 1280 g/ha against AMARE in %” value was determined as 90%. Further, the “Post-emergence efficacy against VERPE” value with VERPE: Veronica persica [9] is listed as 90%. The “Pre-emergence efficacy against ABUTH” value in experiment [10] is reported as 90%. In addition, in [11], the “Pre-emergence efficacy against AMARE” value stood at 100%. The “Pre-emergence efficacy against MATIN” value in [19] is listed as 90%. Further, the “Pre-emergence efficacy against STEME in %” value in the experiment with STEME: Stellaria media [17] is recorded as 90%. Further, the “Pre-emergence efficacy against VERPE in %” value in the experiment with VERPE: Veronica persica [18] worked out at 90%.

As for `FC(F)(F)c1cnn(-c2ccccc2Cc2ncc(Cl)cn2)c1` [Example 1-42], the “Post-emergence efficacy at 1280 g/ha against ABUTH in %” value in experiment [1] stood at 90%. Besides, the “Post-emergence efficacy at 1280 g/ha against AMARE in %” value in experiment [2] is recorded as 100%. Moreover, in experiment [4], the “Post-emergence efficacy at 1280 g/ha against ECHCG in %” value came to 90%. For the same molecule, in the experiment with POAAN: Poa annua [6], the “Post-emergence efficacy against POAAN” value is listed as 90%. Also, the “Post-emergence efficacy against STEME” value with STEME: Stellaria media [8] was 90%. Moreover, in the experiment with VERPE: Veronica persica [9], the “Post-emergence efficacy against VERPE” value turned out to be 90%. For the same molecule, the “Pre-emergence efficacy against ABUTH” value in experiment [10] worked out at 100%. Besides, the “Pre-emergence efficacy against AMARE” value in [11] was 100%. Moreover, the “Pre-emergence efficacy against DIGSA” value in experiment [12] is 100%. In [13], the “Pre-emergence efficacy against ECHCG” value came to 90%. The “Pre-emergence efficacy against KCHSC” value in the experiment with KCHSC: Kochia scoparia [14] is given as 100%. In experiment [19], the “Pre-emergence efficacy against MATIN” value was found to be 90%. Moreover, the “Pre-emergence efficacy against POAAN” value with POAAN: Poa annua [15] was 90%. In the experiment with SETVI: Setaria viridis [16], the “Pre-emergence efficacy against SETVI in %” value was found to be 100%. Further, the “Pre-emergence efficacy against STEME in %” value in the experiment with STEME: Stellaria media [17] stood at 100%. In addition, in the experiment with VERPE: Veronica persica [18], the “Pre-emergence efficacy against VERPE in %” value turned out to be 90%.

The values above are taken from US20250221410A1, “SUBSTITUTED 2-C-AZINES AND SALTS THEREOF, AND USE THEREOF AS HERBICIDAL ACTIVE SUBSTANCES” (BAYER AKTIENGESELLSCHAFT, priority 2022, published 2025).
